Legend:
Assay type in all cases: cell-based, Staphylococcus aureus
[1] = test system: nine different MRSA strains; test: Broth microdilution checkerboard assays, summary over the panel; conditions: each of the nine MRSA strains; breakpoint MIC ≤2 sensitive
Text: (§1) In some embodiments, the present lysin polypeptides reduce the minimum inhibitory concentration (MIC) of an antibiotic. Any known method to assess MIC may be used. In some embodiments, a checkerboard assay is used to determine the effect of a lysin on antibiotic concentration. The checkerboard assay is based on a modification of the CLSI method for MIC determination by broth microdilution (See Clinical and Laboratory Standards Institute (CLSI), CLSI. 2015. Methods for Dilution Antimicrobial Susceptibility Tests for Bacteria That Grow Aerobically; Approved Standard-10th Edition. Clinical and Laboratory Standards Institute, Wayne, Pa., which is herein incorporated by reference in its entirety and Ceri et al. 1999. J. Clin. Microbiol. 37: 1771-1776, which is also herein incorporated by reference in its entirety).
(§2) Checkerboards are constructed by first preparing columns of e.g., a 96-well polypropylene microtiter plate, wherein each well has the same amount of antibiotic diluted 2-fold along the horizontal axis. […] The lysin and antibiotic dilutions are then combined, so that each column has a constant amount of antibiotic and doubling dilutions of lysin, while each row has a constant amount of lysin and doubling dilutions of antibiotic. Each well thus has a unique combination of lysin and antibiotic. Bacteria are added to the drug combinations at a given concentration. […] Summation fractional inhibitory concentrations (ΣFICs) are calculated for each drug and the minimum ΣFIC value (ΣFICmin) is used to determine the effect of the lysin/antibiotic combination.
A step-wise approach was used to evaluate PlySs2 as a resensitizing agent. First, broth microdilution checkerboard assays were used to determine fractional inhibitory concentration index (FICI) values for combinations of PlySs2 with three β-lactam antibiotics [oxacillin (OXA), nafcillin (NAF), and cefazoline (CFZ)] against nine different MRSA strains. […] Representative single agent MICs are also shown, determined for each agent alone (initial) and in combinations (final). […]

[2] = test system: MRSA strain JMI 227; test: Broth microdilution checkerboard assay; design: unit not given here; conditions: for MICinitial: each agent alone (initial); for MICfinal: * = Resensitization
Text: as §1, §2
(§3) A step-wise approach was used to evaluate PlySs2 as a resensitizing agent. First, broth microdilution checkerboard assays were used to determine fractional inhibitory concentration index (FICI) values for combinations of PlySs2 with three β-lactam antibiotics [oxacillin (OXA), nafcillin (NAF), and cefazoline (CFZ)] against nine different MRSA strains. Data from the checkerboard assays were generated to determine the interaction and potency of PlySs2 with the β-lactam antibiotics in comparison to their individual activities. This comparison is represented as the FICI value, whereby values of ≤0.5 are consistent with synergy, values of >0.5-<1 are highly-additive, values of 1-≤2 are indifferent, and values >2 are antagonistic. Representative single agent MICs are also shown, determined for each agent alone (initial) and in combinations (final). Resensitization occurs in synergistic combinations in which the β-lactam antibiotic MIC values fall below established breakpoints, e.g. a MIC value of ≤2 for β-lactam-sensitive isolates, a MIC value of ≥4 for β-lactam-resistant isolates. See Clinical and Laboratory Standards Institute (CLSI), CLSI. 2019. M100 Performance Standards for Antimicrobial Susceptibility Testing; 29th Edition. Clinical and Laboratory Standards Institute, Wayne, Pa.

[3] = test system: MRSA strain JMI 1280; test: Broth microdilution checkerboard assay; design: unit not given here; conditions: for MICinitial: each agent alone (initial); for MICfinal: * = Resensitization
Text: as §1, §2, §3

[4] = test system: MRSA strain ATCC 43300; test: Broth microdilution checkerboard assay; design: unit not given here; conditions: for MICinitial: each agent alone (initial); for MICfinal: * = Resensitization
Text: as §1, §2, §3

[5] = test system: MRSA strain CAIRD 426; test: Broth microdilution checkerboard assay; design: unit not given here; conditions: for MICinitial: each agent alone (initial); for MICfinal: * = Resensitization
Text: as §1, §2, §3

[6] = test system: MRSA strain MW2; test: Broth microdilution checkerboard assay; design: unit not given here; conditions: for MICinitial: each agent alone (initial); for MICfinal: * = Resensitization
Text: as §1, §2, §3

[7] = test system: MRSA strain NRS 11; test: Broth microdilution checkerboard assay; design: unit not given here; conditions: for MICinitial: each agent alone (initial); for MICfinal: * = Resensitization
Text: as §1, §2, §3

[8] = test system: MRSA strain ATCC 33591; test: Broth microdilution checkerboard assay; design: unit not given here; conditions: for MICinitial: each agent alone (initial); for MICfinal: * = Resensitization
Text: as §1, §2, §3

[9] = test system: MRSA strain JMI4789; test: Broth microdilution checkerboard assay; design: unit not given here; conditions: for MICinitial: each agent alone (initial); for MICfinal: * = Resensitization
Text: as §1, §2, §3

[10] = test system: MRSA strain HPV 107; test: Broth microdilution checkerboard assay; design: unit not given here; conditions: for MICinitial: each agent alone (initial); for MICfinal: * = Resensitization
Text: as §1, §2, §3

[11] = in combination PlySs2 + CFZ (final)
[12] = in combination PlySs2 + NAF (final)

How did the “MIC in synergistic combination with PlySs2 relative to breakpoint” value [1] turn out when `Cc1nnc(SCC2=C(C(=O)O)N3C(=O)[C@@H](NC(=O)Cn4cnnn4)[C@H]3SC2)s1` [CFZ, cefazoline] was run?
The value was “below breakpoint values”.

What about the MICinitial [2] of the same compound?
Its MICinitial is 2.

What about the MICfinal [2, 11] of the same compound?
The MICfinal was 0.5.

And the MICinitial [3]?
The MICinitial was 32.

What about the MICfinal [3, 11] of the same compound?
Its MICfinal is 0.5*.

What about the MICinitial [4] of the same compound?
The MICinitial was 16.

And the MICfinal [4, 11]?
Its MICfinal is 4.

What about the MICinitial [5] of the same compound?
The MICinitial was 8.

What about the MICfinal [5, 11] of the same compound?
Its MICfinal is 0.5*.

What about the MICinitial [6] of the same compound?
The MICinitial was 4.

And the MICfinal [6, 11]?
The MICfinal was 1*.

What about the MICinitial [7] of the same compound?
Its MICinitial is 256.

And the MICfinal [7, 11]?
Its MICfinal is 1*.

What about the MICinitial [8] of the same compound?
The MICinitial was 128.

And the MICfinal [8, 11]?
Its MICfinal is 0.5*.

And the MICinitial [9]?
Its MICinitial is 4.

And the MICfinal [9, 11]?
The MICfinal was 1*.

What about the MICinitial [10] of the same compound?
The MICinitial was 16.

What about the MICfinal [10, 11] of the same compound?
The MICfinal was 2*.

How did the “MIC in synergistic combination with PlySs2 relative to breakpoint” value [1] turn out when `CCOc1ccc2ccccc2c1C(=O)N[C@@H]1C(=O)N2[C@@H]1SC(C)(C)[C@@H]2C(=O)O` [NAF, nafcillin] was run?
Its value is “below breakpoint values”.

What about the MICinitial [2] of the same compound?
Its MICinitial is 4.

What about the MICfinal [2, 12] of the same compound?
Its MICfinal is 0.5*.

And the MICinitial [3]?
Its MICinitial is 256.

What about the MICfinal [3, 12] of the same compound?
The MICfinal was 2*.

What about the MICinitial [4] of the same compound?
The MICinitial was 2.

And the MICfinal [4, 12]?
The MICfinal was 0.25.

What about the MICinitial [5] of the same compound?
Its MICinitial is 16.

What about the MICfinal [5, 12] of the same compound?
The MICfinal was 1*.

What about the MICinitial [6] of the same compound?
The MICinitial was 4.

And the MICfinal [6, 12]?
The MICfinal was 0.031*.

What about the MICinitial [7] of the same compound?
The MICinitial was 64.

And the MICfinal [7, 12]?
Its MICfinal is 1*.

And the MICinitial [8]?
Its MICinitial is 64.

What about the MICfinal [8, 12] of the same compound?
Its MICfinal is 2*.

What about the MICinitial [9] of the same compound?
The MICinitial was 4.

What about the MICfinal [9, 12] of the same compound?
Its MICfinal is 0.5*.

And the MICinitial [10]?
Its MICinitial is 2.

And the MICfinal [10, 12]?
The MICfinal was 0.25.
